We go through 21 compounds from patent US20240067617A1 (Albireo AB, priority 2022, published 2024).

In assay [1] the target is T1, hLBAT (Homo sapiens, UniProt Q14973).
T1 construct: expressed in transfected cells; kept under Geneticin selection
T1 sequence (Q14973 1-349): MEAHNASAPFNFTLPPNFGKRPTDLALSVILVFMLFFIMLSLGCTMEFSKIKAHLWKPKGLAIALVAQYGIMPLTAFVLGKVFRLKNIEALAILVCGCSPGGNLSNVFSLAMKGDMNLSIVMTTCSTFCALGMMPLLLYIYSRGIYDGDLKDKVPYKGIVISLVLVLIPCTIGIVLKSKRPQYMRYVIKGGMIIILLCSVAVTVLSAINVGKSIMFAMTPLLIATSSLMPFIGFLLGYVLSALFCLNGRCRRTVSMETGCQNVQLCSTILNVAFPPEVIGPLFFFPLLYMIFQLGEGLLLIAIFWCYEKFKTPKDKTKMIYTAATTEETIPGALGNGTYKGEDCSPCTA
The assay can be described thus: LBAT (h/m) assay: 3H-taurocholic acid uptake in human LBAT-overexpressing cells. It is filed as cell-based. Particulars: 0.3 μM 3H-taurocholic acid + 7.5 μM cold taurocholic acid, 20 minutes at 37° C. The method, then: LBAT (h/m) Assay Protocol
20,000 cells (Human or Mouse LBAT-overexpressing cells) were seeded in 96-wells plate (Corning CLS3809) in 100 μL MEM-alpha medium (Gibco 12571-063) supplemented with 10% FBS (Gibco 10438026) containing Geneticin (Gibco 10131-027) (1 mg/mL) and incubated at 37° C. in 5% CO2 for 24 hours. After incubation, media was decanted from the wells and cells were washed two times with 300 μL of basal MEM-alpha medium (FBS-free). After decanting basal MEM-alpha medium each time, plates were tapped against paper towel to ensure maximum removal of residual media. For human LBAT, incubation mix was prepared by adding test inhibitor dilutions (3-fold serial dilution in DMSO (Sigma D2650), 10 points) in MEM-alpha (without FBS) containing 0.3 μM 3H-taurocholic acid (ARC ART-1368) and 7.5 μM cold taurocholic acid (Sigma T4009) (maintaining 0.2% final DMSO concentration). For mouse LBAT, incubation mix was prepared by adding test inhibitor dilutions (3-fold serial dilution in DMSO, 10 points) in MEM-alpha (without FBS) containing 0.3 μM 3H-taurocholic acid and 25 μM cold taurocholic acid maintaining 0.2% final DMSO concentration). 50 μL of incubation mix containing test inhibitors was then added to the wells (in duplicate) and the plates were incubated for 20 minutes in a CO2 incubator at 37° C. After incubation, the reaction was stopped by keeping the plates on ice water mix for 2-3 minutes and then the incubation mix was aspirated completely from the wells. The wells were washed two times with 250 μL of chilled unlabelled 1 mM taurocholic acid dissolved in HEPES (Gibco 15630080)-buffered (10 mM) HBSS (Gibco 14175079) (pH 7.4). The plates were tapped against a paper towel after every wash to ensure maximum removal of blocking buffer.
100 μL of MicroScint-20 (PerkinElmer 6013621) was added to the wells and kept overnight at RT before reading the plates in TopCount NXT™ Microplate Scintillation and Luminescence Counter from PerkinElmer under 3H Test protocol (set at 120 seconds reading time per well, with normal plate orientation).
(§1) Preparation of Test Compound Dilutions
(§2) All test compounds were provided in powder form at RT. 10 mM DMSO stocks of the test compounds were prepared, aliquoted and stored at −20° C. From the 10 mM DMSO stock of the compounds, a 3-fold serial dilution in DMSO was prepared to get a total of 10 dilutions of the test compounds. 0.5 μL of this dilution in DMSO was added to 250 μL of FBS-free basal media containing 3H-taurocholic acid and cold taurocholic acid to prepare the incubation mixture.

For assay [2], the target named is T2, hIBAT (Homo sapiens, UniProt Q12908).
T2 construct: expressed in transfected cells; kept under Puromycin selection
T2 sequence (Q12908 1-348): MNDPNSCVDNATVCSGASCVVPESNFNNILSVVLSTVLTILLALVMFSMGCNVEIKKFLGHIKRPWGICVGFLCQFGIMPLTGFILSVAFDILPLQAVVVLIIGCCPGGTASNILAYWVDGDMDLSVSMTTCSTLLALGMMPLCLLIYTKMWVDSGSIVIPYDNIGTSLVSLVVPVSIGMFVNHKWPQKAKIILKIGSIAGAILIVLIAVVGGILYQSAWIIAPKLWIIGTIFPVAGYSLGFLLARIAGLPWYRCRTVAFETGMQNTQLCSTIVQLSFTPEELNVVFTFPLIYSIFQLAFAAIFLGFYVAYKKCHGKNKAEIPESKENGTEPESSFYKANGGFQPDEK
The assay can be described thus: IBAT (h/m) assay: 3H-taurocholic acid uptake in human IBAT-overexpressing cells. Particulars: 0.25 μM 3H-taurocholic acid + 5 μM cold taurocholic acid, 20 minutes at 37° C., highest test concentration 10 μM. It counts as cell-based. The method, then: IBAT (h/m) Assay Protocol
10,000 cells (Human or Mouse IBAT-overexpressing cells) were seeded in 96-wells plate (Corning CLS3809) in 200 μL MEM-alpha medium (Gibco 12571-063) supplemented with 10% FBS (Gibco 10438026) containing Puromycin (Gibco A1113803) (10 μg/mL) and incubated at 37° C. in 5% CO2 for 48 hours. After incubation, media was decanted from the wells and cells were washed two times with 300 μL of basal MEM-alpha medium (FBS-free). After decanting basal MEM-alpha medium each time, plates were tapped against paper towel to ensure maximum removal of residual media. Test inhibitor dilutions (highest test concentration being 10 μM, 3-fold serial dilution, 10 points) prepared in DMSO (Sigma D2650) were added in incubation mix (maintaining 0.2% final DMSO concentration) containing 0.25 μM 3H-taurocholic acid (ARC ART-1368) and 5 μM of cold taurocholic acid (Sigma T4009). 50 μL of incubation mix containing test inhibitors was then added to the wells (in duplicate) and the plates were incubated for 20 minutes in a CO2 incubator at 37° C. After incubation, the reaction was stopped by keeping the plates on ice water mix for 2-3 minutes and then the incubation mix was aspirated completely from the wells. The wells were washed two times with 250 μL of chilled unlabelled 1 mM taurocholic acid dissolved in HEPES (Gibco 15630080)-buffered (10 mM) HBSS (Gibco 14175079) (pH 7.4). The plates were tapped against a paper towel after every wash to ensure maximum removal of blocking buffer.
100 μL of MicroScint-20 (PerkinElmer 6013621) was added to the wells and kept overnight at RT before reading the plates in TopCount NXT™ Microplate Scintillation and Luminescence Counter from PerkinElmer under 3H Test protocol (set at 120 seconds reading time per well).
as §1, §2

One may read the IC50 as the concentration needed to halve the response being measured. In the case of `CCCCC1CN(c2ccc(F)cc2)c2cc(OC)c(CSCC(=O)O)cc2S(=O)(=O)N1C` (single isomer, unassigned) [30, enantiomer 2], the IC50 is 200 nM in assay [1] and 349 nM in assay [2].

With `CCCCC1(CC)CN(c2ccc(F)cc2)c2cc(OC)c(CSC(C)(C)C(=O)O)cc2S(=O)(=O)C1` (single isomer, unassigned) [34, enantiomer 1], the IC50 was determined as 110 nM in assay [1] and 161 nM in assay [2].

With `CCCCC1(CC)CN(c2ccc(F)cc2)c2cc(OC)c(CSC(C)(C)C(=O)O)cc2S(=O)(=O)C1` (single isomer, unassigned) [34, enantiomer 2], the figures for the IC50 in assay [1] and in assay [2] were 155 nM and 1960 nM, respectively.

Turning to `CCCCC1CN(c2ccccc2)c2cc(OC)c(CSCC(=O)O)cc2S(=O)(=O)N1C` (single isomer, unassigned) [36, enantiomer 1], the IC50 in assay [1] and in assay [2] was above 10000 nM throughout.

For the compound `CCCCC1CN(c2ccccc2)c2cc(OC)c(CSCC(=O)O)cc2S(=O)(=O)N1C` (single isomer, unassigned) [36, enantiomer 2], the figures for the IC50 in assay [1] and in assay [2] were 155 nM and 2750 nM, respectively.

Turning to `CCCCC1CN(c2ccccc2)c2cc(OC)c(CSC(C)(C)C(=O)O)cc2S(=O)(=O)N1C` (single isomer, unassigned) [38, enantiomer 1], the half-inhibitory concentration (IC50) in assay [1] is 1130 nM; in assay [2], above 10000 nM.

As to `CCCCC1CN(c2ccccc2)c2cc(OC)c(CSC(C)(C)C(=O)O)cc2S(=O)(=O)N1C` (single isomer, unassigned) [38, enantiomer 2], the IC50 in assay [1] was 6.6 nM; in assay [2] it was 1600 nM.

In the case of `CCCCC1(CC)CN(c2ccc(F)cc2)c2cc(OC)c(CSCC(=O)O)cc2S(=O)(=O)C1` (single isomer, unassigned) [40, enantiomer 1], the IC50 in assay [1] was above 10000 nM; in assay [2], 1.4 nM.

With `CCCCC1(CC)CN(c2ccc(F)cc2)c2cc(OC)c(CSCC(=O)O)cc2S(=O)(=O)C1` (single isomer, unassigned) [40, enantiomer 2], the values for the IC50 in assay [1] and in assay [2] were above 10000 nM and 36 nM, respectively.

Regarding `CCCCC1(C)CN(c2ccccc2)c2cc(OC)c(CSC(C)(C)C(=O)O)cc2S(=O)(=O)C1` (single isomer, unassigned) [42, enantiomer 1], the IC50 in assay [1] turned out to be 223 nM; in assay [2], 704 nM.

As for `CCCCC1(C)CN(c2ccccc2)c2cc(OC)c(CSC(C)(C)C(=O)O)cc2S(=O)(=O)C1` (single isomer, unassigned) [42, enantiomer 2], the figures for the IC50 in assay [1] and in assay [2] were 241 nM and above 10000 nM, respectively.

In the case of `CCCCC1(CC)CN(c2ccccc2)c2cc(OC)c(CSCC(=O)O)cc2S(=O)(=O)N1` (single isomer, unassigned) [45, enantiomer 1], the IC50 is above 1000 nM in assay [1] and 28 nM in assay [2].

For the compound `CCCCC1(CC)CN(c2ccccc2)c2cc(S(C)(=O)=O)c(CSCC(=O)O)cc2S(=O)(=O)N1` (single isomer, unassigned) [48, enantiomer 1], the IC50 in assay [1] is above 1000 nM; in assay [2], 231 nM.

As to `CCCCC1(CC)CN(c2ccccc2)c2cc(S(C)(=O)=O)c(CSCC(=O)O)cc2S(=O)(=O)N1` (single isomer, unassigned) [48, enantiomer 2], the results for the IC50 in assay [1] and in assay [2] were above 1000 nM and 5.8 nM, respectively.

For `CCCCC1(CCCC)CN(c2ccccc2)c2cc(SC)c(CSCC(=O)O)cc2S(=O)(=O)C1` [Example 3, 2-(((3,3-dibutyl-7-(methylthio)-1,1-dioxido-5-phenyl-2,3,4,5-tetrahydro-1,5-benzothiazepin-8-yl)methyl)thio)acetic acid], the IC50 was 3370 nM in assay [1] and 1.7 nM in assay [2].

As to `CCCCC1(CCCC)CN(c2ccccc2)c2cc(SC)c(CSCC(=O)O)cc2S(=O)(=O)N1` [Example 8, 2-(((3,3-dibutyl-7-(methylthio)-1,1-dioxido-5-phenyl-2,3,4,5-tetrahydro-1,2,5-benzothiadiazepin-8-yl)methyl)thio)acetic acid], the results for the IC50 in assay [1] and in assay [2] were above 3330 nM and 0.8 nM, respectively.

Consider `CCCCC1(CCCC)CN(c2ccccc2)c2cc(SC)c(CSC(C)(C)C(=O)O)cc2S(=O)(=O)C1` [Example 17, 2-(((3,3-Dibutyl-7-(methylthio)-1,1-dioxido-5-phenyl-2,3,4,5-tetrahydro-1,5-benzothiazepin-8-yl)methyl)thio)-2-methylpropanoic acid], for which the values for the IC50 in assay [1] and in assay [2] were 216 nM and 88 nM, respectively.

Take `CCCCC1(CC)CN(c2ccccc2)c2cc(SC)c(CSCC(=O)O)cc2S(=O)(=O)N1C` (stereo not drawn) [Example 20, 2-(((3-Butyl-3-ethyl-2-methyl-7-(methylthio)-1,1-dioxido-5-phenyl-2,3,4,5-tetrahydro-1,2,5-benzothiadiazepin-8-yl)methyl)thio)acetic acid]: the IC50 in assay [1] was found to be 2510 nM; in assay [2] it was 522 nM.

Turning to `CCCCC1(CCCC)CN(c2ccccc2)c2cc(SC)c(CSCC(=O)O)cc2S(=O)(=O)N1C` [Example 22, 2-(((3,3-dibutyl-2-methyl-7-(methylthio)-1,1-dioxido-5-phenyl-2,3,4,5-tetrahydro-1,2,5-benzothiadiazepin-8-yl)methyl)thio)acetic acid], the results for the IC50 in assay [1] and in assay [2] were above 3330 nM and 900 nM, respectively.

In the case of `CCCCC1(CCCC)CN(c2ccccc2)c2cc(SC)c(CSC(C)(C)C(=O)O)cc2S(=O)(=O)N1C` [Example 23, 2-(((3,3-dibutyl-2-methyl-7-(methylthio)-1,1-dioxido-5-phenyl-2,3,4,5-tetrahydro-1,2,5-benzothiadiazepin-8-yl)methyl)thio)-2-methylpropanoic acid], the results for the IC50 in assay [1] and in assay [2] were 145 nM and above 3330 nM, respectively.

As to `CCCCC1(CC)CN(c2ccccc2)c2cc(SC)c(CSC(C)(C)C(=O)O)cc2S(=O)(=O)N1C` (stereo not drawn) [Example 24], the IC50 in assay [1] is 85 nM; in assay [2] it was above 3330 nM.
